Results as given in the NIST ThermoML archive (doi:10.1016/j.jct.2006.10.008).

Experiments:
[1] = excess molar enthalpy (molar enthalpy of mixing); xn = mol fraction of the nth substance listed; settings: 298.15 K, 101 kPa, Liquid, Calvet calorimetry
[2] = xn = mol fraction of the nth substance listed; settings: 298.15 K, 101 kPa, Liquid

ClCCCCl [1,3-dichloropropane] + CCOC=O
Settings | excess molar enthalpy [kcal/mol] | mass density [kg/m3]
[1], x2 = 0.1171 | 0.00817 | –
[1], x2 = 0.2311 | 0.0165 | –
[1], x2 = 0.3403 | 0.0202 | –
[1], x2 = 0.435 | 0.0196 | –
[1], x2 = 0.5147 | 0.0165 | –
[1], x2 = 0.5813 | 0.0124 | –
[1], x2 = 0.6354 | 0.00894 | –
[1], x2 = 0.682 | 0.00588 | –
[1], x2 = 0.7186 | 0.00296 | –
[1], x2 = 0.7381 | -0.0037 | –
[1], x2 = 0.7773 | -0.00679 | –
[1], x2 = 0.8208 | -0.0092 | –
[1], x2 = 0.8622 | -0.0105 | –
[1], x2 = 0.9018 | -0.00858 | –
[1], x2 = 0.9383 | -0.00452 | –
[1], x2 = 0.9723 | -0.000287 | –
[2], x2 = 0.0758 | – | 1161.82
[2], x2 = 0.1392 | – | 1147.48
[2], x2 = 0.2059 | – | 1132.04
[2], x2 = 0.2686 | – | 1117.5
[2], x2 = 0.336 | – | 1101.45
[2], x2 = 0.3983 | – | 1086.31
[2], x2 = 0.4584 | – | 1071.44
[2], x2 = 0.5183 | – | 1056.42
[2], x2 = 0.5752 | – | 1041.98
[2], x2 = 0.6319 | – | 1027.35
[2], x2 = 0.6884 | – | 1012.54
[2], x2 = 0.7433 | – | 997.87
[2], x2 = 0.7967 | – | 983.56
[2], x2 = 0.849 | – | 969.23
[2], x2 = 0.9005 | – | 954.87
[2], x2 = 0.949 | – | 941.1

ClCCCCCCCl [1,6-dichlorohexane] + CCCCOC=O
Settings | excess molar enthalpy [kcal/mol] | mass density [kg/m3]
[1], x2 = 0.095 | 0.006 | –
[1], x2 = 0.1874 | 0.00985 | –
[1], x2 = 0.2768 | 0.0102 | –
[1], x2 = 0.3583 | 0.00722 | –
[1], x2 = 0.4321 | 0.00131 | –
[1], x2 = 0.4949 | -0.00696 | –
[1], x2 = 0.5195 | -0.00906 | –
[1], x2 = 0.5526 | -0.0129 | –
[1], x2 = 0.566 | -0.0141 | –
[1], x2 = 0.616 | -0.0186 | –
[1], x2 = 0.6674 | -0.0208 | –
[1], x2 = 0.7246 | -0.0205 | –
[1], x2 = 0.7832 | -0.0183 | –
[1], x2 = 0.8346 | -0.0157 | –
[1], x2 = 0.892 | -0.0102 | –
[1], x2 = 0.9474 | -0.0059 | –
[2], x2 = 0.074 | – | 1053.56
[2], x2 = 0.1444 | – | 1043.66
[2], x2 = 0.2217 | – | 1032.43
[2], x2 = 0.2795 | – | 1023.76
[2], x2 = 0.3441 | – | 1013.82
[2], x2 = 0.4081 | – | 1003.67
[2], x2 = 0.5278 | – | 983.77
[2], x2 = 0.586 | – | 973.68
[2], x2 = 0.641 | – | 963.84
[2], x2 = 0.702 | – | 952.63
[2], x2 = 0.7544 | – | 942.71
[2], x2 = 0.856 | – | 922.68
[2], x2 = 0.9056 | – | 912.53
[2], x2 = 0.9528 | – | 902.59

ClCCCCCCCl [1,6-dichlorohexane] + COC=O
Settings | excess molar enthalpy [kcal/mol] | mass density [kg/m3]
[1], x2 = 0.0953 | 0.058 | –
[1], x2 = 0.2199 | 0.1098 | –
[1], x2 = 0.3324 | 0.1456 | –
[1], x2 = 0.4307 | 0.1664 | –
[1], x2 = 0.5033 | 0.1742 | –
[1], x2 = 0.5596 | 0.1754 | –
[1], x2 = 0.5977 | 0.1763 | –
[1], x2 = 0.6601 | 0.173 | –
[1], x2 = 0.7167 | 0.1668 | –
[1], x2 = 0.7749 | 0.1558 | –
[1], x2 = 0.8296 | 0.1374 | –
[1], x2 = 0.8855 | 0.113 | –
[1], x2 = 0.935 | 0.0781 | –
[1], x2 = 0.974 | 0.0416 | –
[2], x2 = 0.1205 | – | 1057.33
[2], x2 = 0.2277 | – | 1050.93
[2], x2 = 0.3234 | – | 1044.52
[2], x2 = 0.4146 | – | 1037.85
[2], x2 = 0.4858 | – | 1032.03
[2], x2 = 0.555 | – | 1025.73
[2], x2 = 0.6169 | – | 1019.68
[2], x2 = 0.6713 | – | 1013.87
[2], x2 = 0.7244 | – | 1007.71
[2], x2 = 0.7696 | – | 1002.16
[2], x2 = 0.811 | – | 996.6
[2], x2 = 0.8479 | – | 991.36
[2], x2 = 0.8838 | – | 986.03
[2], x2 = 0.9163 | – | 980.96
[2], x2 = 0.9461 | – | 976
[2], x2 = 0.9737 | – | 970.7

ClCCCCCCl [1,5-dichloropentane] + CCOC=O
Settings | excess molar enthalpy [kcal/mol] | mass density [kg/m3]
[1], x2 = 0.1024 | 0.0337 | –
[1], x2 = 0.2043 | 0.0534 | –
[1], x2 = 0.2974 | 0.0705 | –
[1], x2 = 0.3848 | 0.0801 | –
[1], x2 = 0.4598 | 0.0825 | –
[1], x2 = 0.5273 | 0.081 | –
[1], x2 = 0.5845 | 0.0767 | –
[1], x2 = 0.6305 | 0.071 | –
[1], x2 = 0.6809 | 0.062 | –
[1], x2 = 0.7286 | 0.0551 | –
[1], x2 = 0.7798 | 0.0454 | –
[1], x2 = 0.8289 | 0.0355 | –
[1], x2 = 0.8791 | 0.0261 | –
[1], x2 = 0.9215 | 0.0166 | –
[1], x2 = 0.9634 | 0.0075 | –
[2], x2 = 0.0955 | – | 1084.27
[2], x2 = 0.1752 | – | 1074.48
[2], x2 = 0.2534 | – | 1064.51
[2], x2 = 0.3284 | – | 1054.28
[2], x2 = 0.3985 | – | 1044.1
[2], x2 = 0.4628 | – | 1034.31
[2], x2 = 0.5327 | – | 1023.03
[2], x2 = 0.5897 | – | 1013.34
[2], x2 = 0.6456 | – | 1003.36
[2], x2 = 0.698 | – | 993.61
[2], x2 = 0.7473 | – | 983.9
[2], x2 = 0.7941 | – | 974.37
[2], x2 = 0.8401 | – | 964.52
[2], x2 = 0.8829 | – | 954.89
[2], x2 = 0.9235 | – | 945.49
[2], x2 = 0.9625 | – | 936.01
